One assay deals with HT22 cells. The experiment in a line: Glutamate insult test in HT22 cells, MTT assay. The format is cell-based, Mouse. Particulars: for reduced HT22 cell death: 400 nM peptide; for reduced HT22 cell death / reduced cell death: 6 mM glutamate, 24 h, MTT. How it is done:
The group with 0 nM RvTAT-PKD-S205 was as a control. Cell Death rate (%)=100%×(Control OD−treatment OD)/Control OD. Data were shown as mean t SEM, (n=3), *p<0.05, **p<0.01, One-Way ANOVA followed by Multiple Comparisons versus the group with 0 nM RvTAT-PKD-S205 (Bonferroni t-test).
After 24 hours following glutamate exposure, cell cytotoxicity was determined by the MTT assay. HT22 cells, without the presence of the test agents in culture medium, were exposed separately 42 of 59 to 6 mM Glutamate salt as a control. Cell Death (%)=100%×(Control OD−treatment OD)/Control OD. Data were shown as mean±SEM, (n=3) * p<0.05, **p<0.01, One-Way ANOVA followed by Multiple Comparisons versus Glutamate Control Group (Bonferroni t-test).
The cells of HT-22 Mouse Hippocampal neuronal cell line were cultured and maintained in DMEM 10% fetal bovine serum, 100 U/ml penicillin and 100 μg/ml streptomycin. Cells were maintained at a temperature of 37° C. in 5% CO2/95% air. During agent's treatments and experimentation, HT-22 cells were seeded in 96-well plates by 6×10^3 cells/well and cultured at 37° C. in a CO2 incubator for 24 h. Afterwards, For neuroprotection assays, HT22 cells were exposure to 6 mM glutamate by removing media and adding Neurobasal Medium with present of 2% B27 (B27 (B-27™ Plus Supplement (50×)) and various concentrations of test agents for further 24 hours at 37° C. in the CO2 incubator. Cell viability was assessed by MTT assay.
Cell viability was quantitatively measured by 3-[4,5-dimethylthiazol-2-yl]-2,5-diphenyltetrazolium bromide (MTT) assay.
Water-soluble yellow dye MTT reagent (final concentration 0.5 mg/ml) was added to each well and incubated at 37° C. After 4 hours, the incubate medium was removed and 100 μl of Dimethyl Sulfoxide (DMSO) was added. After 30 min extraction at room temperature, the absorbance of the formazan solution is determined spectrophotometrically at 570 nm. MTT absorbance data were converted to reflect proportional cell viability relative to both the untreated and treated controls, wherein the untreated control was considered as 100% viability.
For orientation: Tetrazolium assays rely on reduction of a dye to a coloured formazan, in cell work by metabolically active cells.

For assay [1], the system named is rat primary cortical neurons. The experiment in a line: Oxygen-glucose deprivation (OGD)/reperfusion in primary cortical neuronal cultures, MTT assay. The format is cell-based, Sprague Dawley rat. The protocol:
(§1) To induce OGD, EBSS containing 20 mM pH7.2 Sodium dithionite (Na2S2O4) solution with test agents were transiently exposed for 1.5 hrs, afterwards, for reperfusion, OGD culture medium was replaced with normal neurobasal media. The culture cells were further incubated for 20 hours, and cell cytotoxicity was assessed using the MTT assay. Non-OGD treated cell culture was as a control taken as 100% viability, Cell Death rate (%)=100%×(Control OD−treatment OD)/Control OD. Data were shown as mean±SEM, (n=3) * p<0.05, One-Way ANOVA followed by Multiple Comparisons versus OGD CTRL Group (Bonferroni t-test).
as §1, with “peptides” for “agents”, “show” for “shown”, “(n=3)) ** p<0.01, *** p<0.005;” for “(n=3) * p<0.05,”
Primary cultures of mixed cortical cell cultures containing both neurons and glia were prepared from embryonic day 15-18 Sprague Dawley rat as described previously [Wenxiang Fan, 50 of 59 Xiang Li, Liangliang Huang, Shucheng He, Zhicheng Xie, Yuxin Fu, Weirong Fang, Yunman Li S-oxiracetam ameliorates ischemic stroke induced neuronal apoptosis through up-regulating α7nAChR and PI3K/Akt/GSK3β signal pathway in rats Neurochemistry International Volume 115, May 2018, Pages 50-60 https://doi.org/10.1016/j.Neuint.2018.01.008]. […]
Oxygen glucose deprivation were performed according to a previously method [J. Huang, N. D. Kodithuwakku, W. He. […] Finally, Cell viability was determined by MTT assay (same as 1.2) […]

In assay [2] the test system is transient middle cerebral artery occlusion/reperfusion (MCAO/R) stroke model. The experiment in a line: Transient MCAO/R stroke model, infarct volume by TTC staining. Format: in vivo, Sprague-Dawley rats. The settings on record: 3.5 mg/kg single i.v. bolus 4.5 h after ischemia onset; 90 min MCAO; TTC about 24 h; vs saline controls.
The test system of assay [3] is transient bilateral common carotid artery occlusion (tBCCAO/R) global cerebral ischemia model. The experiment in a line: Y-maze passive avoidance after tBCCAO/R. The format is in vivo, C57BL/6 mice. The settings on record: 7 mg/kg i.v. 3 h after tBCCAO; tested 24 h after tBCCAO/R; vs untreated group. The protocol:
(§2) C57BL/6 mice were subjected to two times 20 minutes bilateral common carotid arteries occlusion followed by reperfusion (tBCCAO/R) and treated with 7 mg/2 ml/kg RvTAT-PKD-S205 or some volume Saline via tail vein administered after 3 hours of the tBCCAO. After 24 hours of reperfusion, the ischemic mice were estimated by the Y maze Passive Avoidance task, as well as the MDA content in hippocampus and brain water content. […] FIG. 6C show the MDA content in hippocampus collected from Ischemic or sham mice after 24 hours of reperfusion subject to MDA ELISA assay. […] Data were shown as mean±SEM, (n=11 in each group), *p<0.05, **p<0.01 compared to Saline control group using Student t test. Animal treatments were randomized, and all procedures were performed blinded to treatment. […]
The day before surgery, the researchers train the mice to avoid electric shocks caused by light sources, which can minimize the effects of odor. […] Learning and memory skill was quantified by Y maze passive avoidance task 24 hours after tBCCAO/R modeling (FIG. 6A).
After 24 hrs BCCAO/R mice were acclimatized to the testing room before conducting the Y-maze and allowed to familiarize themselves with the maze. […] A current stimulation of pre-determined intensity (0.05-0.8 mA) will be administered. […] The number to escape to the safe zone was recorded; any escapes to non-safe zones were regarded as erroneous. […]

The subject of assay [4] is MDA content in hippocampus. The experiment in a line: Malondialdehyde (MDA) assay after tBCCAO/R. The format is in vivo, C57BL/6 mice. The settings on record: 7 mg/kg i.v. 3 h after tBCCAO; 24 h reperfusion; vs saline. How it is done: as §2
MDA is one of the important products of lipid peroxidation and the extent of lipid oxidation was determined by measuring MDA levels. […] The supernatants were collected after the lysates were centrifuged at 3,500 r/min for 10 min at 4° C., and MDA content was determined using MDA TCA kit (Nanjing Jiancheng Bioengineering Institute, Nanjing, China) following the manufacturer's protocol. The results were evaluated from the standard curve and calculated as nM/mg of tissue.

For assay [5], the system named is transient bilateral common carotid artery occlusion (tBCCAO/R) global cerebral ischemia model. Briefly: Brain edema (brain water content) after tBCCAO/R. The format is in vivo, C57BL/6 mice. Particulars: 7 mg/kg i.v. 3 h after tBCCAO; 24 h reperfusion; vs saline controls. How it is done:
C57BL/6 mice were subjected to two times 20 minutes bilateral common carotid arteries occlusion followed by reperfusion (tBCCAO/R) and treated with 7 mg/2 ml/kg RvTAT-PKD-S205 or some volume Saline via tail vein administered after 3 hours of the tBCCAO. After 24 hours of reperfusion, the ischemic mice were estimated by the Y maze Passive Avoidance task, as well as the MDA content in hippocampus and brain water content. […] FIG. 6C show the MDA content in hippocampus collected from Ischemic or sham mice after 24 hours of reperfusion subject to MDA ELISA assay. […] Data were shown as mean±SEM, (n=11 in each group), *p<0.05, **p<0.01 compared to Saline control group using Student t test. Animal treatments were randomized, and all procedures were performed blinded to treatment.
Modeling: C57 […] male mice weighing 20-30 g (6-7 weeks old) were allowed free access to food and water and were housed under constant environmental conditions (a 12/12 h light/dark cycle). […]
Mice were assessed for brain edema by the dry/wet weight measurement after 24 hrs BCCAO/R. Wet weight was determined immediately after dissection of the brain, then the tissue was dried at 55° C. to a constant weight over 24 hours to determine the dry weight. The percentage of brain water content was calculated as (wet weight−dry weight)/wet weight*100.

Assay [6] concerns transient middle cerebral artery occlusion/reperfusion (MCAO/R) stroke model. The experiment in a line: Rotarod motor performance after MCAO/R. Particulars: 3.5 mg/kg i.v. 4.5 h after ischemia onset; for Holding time on rod increase: vs untreated control group. Format: in vivo, Sprague-Dawley rats.

Here are results for five sequences from patent US20240034752A1, “ARTIFICIAL SHORT INTERFERING PEPTIDE FOR THE PHOSPHORYLATION SUBSTRATE OF DAPK1 AND ITS PHARMACEUTICAL APPLICATIONS” (priority 2021, published 2024).

“RRRQRRKKRGQIAKRRRLSSLRA [RvTAT-rSP6-S235, Fusion peptide: RvTAT at N-terminus of rSP6-S235]”: in the assay with HT22 cells, the “reduced HT22 cell death” value is given as “about 29%”.
Turning to “RRRQRRKKRGRKPERRRLKTTRL [RvTAT-ZIPK-T299, Fusion peptide: RvTAT at N-terminus of ZIPK-T299]”, the “reduced HT22 cell death” value in the assay on HT22 cells is “about 33%”. In addition, in assay [1] (1000 nM peptide added 30 min before OGD, 20 h reperfusion, MTT), the “reducing cortical neuronal death” value is given as 12%.
For “RRRQRRKKRGKKRPQRRYSNVP [RvTAT-opMLC-S20]”, the “reduced HT22 cell death” value in the assay on HT22 cells is listed as approximately 25%. The survival of neurons result in assay [1] (OGD model) was “did not significantly increase”.
In the case of “RRRQRRKKRGNLSRRLKVTGDL [RvTAT-BECN1-T199, Fusion peptide: RvTAT at N-terminus of BECN1-T199]”, the “reduced HT22 cell death” value in the assay with HT22 cells was approximately 21%.
As for “RRRQRRKKRGSGVRRRRLSNVSL [RvTAT-PKD-S205, Fusion peptide: RvTAT cell penetrating peptide at N-terminus of PKD-S205]”, in assay [2], the “reduced the volume of total cerebral infarction” value is reported as “approximately 60%”. Besides, the reduced cell death stood at 11% in the assay with HT22 cells (100 nM peptide), 22% in the assay with HT22 cells (200 nM peptide) and 24% in the assay with HT22 cells (1600 nM peptide). The sequence also yielded a most effective concentration in the assay on HT22 cells (glutamate induced apoptosis model) of 400 nM. Further, the “increase in memory index (Y-maze passive avoidance)” value in assay [3] is 30%. Moreover, in assay [1] (300 nM peptide added 30 min before OGD, 20 h reperfusion, MTT), the reducing neuronal death was determined as 12%. Besides, the “decrease in MDA level” value in assay [4] turned out to be 55%. For the same sequence, in assay [5], the “brain water content reduced” value was 8.5%. The “mean holding time, treated vs untreated” value in assay [6] (3 days after tMCAO) is recorded as “no significant differences”. The “Holding time on rod increase” value is 70% in assay [6] (5 days after tMCAO) and 75% in assay [6] (7 days after tMCAO).
